Data reported in ChEMBL document CHEMBL1201862, “PubChem BioAssay data set” (2004).
Active and inactive are the calls of the source. Cut-off read from the data, not from the text of the source: actives have a measured IC50 and inactives only a lower limit.

Target: Envelope glycoprotein gp160 (Human immunodeficiency virus 1, UniProt Q6QLK5)
Assay: cell-free HIV fusion peptide-binding blockers – biochemical, uHTS, fluorescence dequenching, […] (AID 1986)

Chain of Envelope glycoprotein gp160 (Q6QLK5 whole entry, the tested form may be a part): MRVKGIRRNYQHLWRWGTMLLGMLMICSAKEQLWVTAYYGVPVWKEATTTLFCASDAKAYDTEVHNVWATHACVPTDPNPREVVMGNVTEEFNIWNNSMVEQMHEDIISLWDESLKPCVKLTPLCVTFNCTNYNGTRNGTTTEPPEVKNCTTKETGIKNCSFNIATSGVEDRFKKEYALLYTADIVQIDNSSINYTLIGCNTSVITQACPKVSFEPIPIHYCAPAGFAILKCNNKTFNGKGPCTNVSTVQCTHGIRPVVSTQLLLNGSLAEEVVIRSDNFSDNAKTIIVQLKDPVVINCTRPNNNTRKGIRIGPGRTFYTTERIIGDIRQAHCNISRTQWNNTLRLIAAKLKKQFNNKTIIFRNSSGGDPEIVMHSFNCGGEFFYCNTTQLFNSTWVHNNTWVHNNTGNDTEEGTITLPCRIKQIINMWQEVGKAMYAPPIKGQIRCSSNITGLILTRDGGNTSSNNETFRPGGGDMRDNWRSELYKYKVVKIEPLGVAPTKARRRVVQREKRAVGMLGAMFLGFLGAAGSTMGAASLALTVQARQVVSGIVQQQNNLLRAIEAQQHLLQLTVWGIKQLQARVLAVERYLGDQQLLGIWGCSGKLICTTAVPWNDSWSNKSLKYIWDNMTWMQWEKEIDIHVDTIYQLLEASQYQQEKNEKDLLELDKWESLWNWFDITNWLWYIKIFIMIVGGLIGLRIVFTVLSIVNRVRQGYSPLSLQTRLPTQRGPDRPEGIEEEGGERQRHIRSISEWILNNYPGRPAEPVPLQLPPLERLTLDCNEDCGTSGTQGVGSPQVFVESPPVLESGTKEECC

Row | Structure (SMILES) | IC50
1 | CC(/C=C1\SC(=S)N(c2ccc(C(=O)O)cc2)C1=O)=C\c1ccccc1 | 16.2 µM (active)
2 | C=CCOc1ccc(C(c2c(C(=O)O)[nH]c3ccccc23)c2c(C(=O)O)[nH]c3ccccc23)cc1 | 5.01 µM (active)
